ChEMBL document CHEMBL3885861, “Open TG-GATES”

Species on record: Rattus norvegicus
Assay: Open TG-GATES - Regimen: Single
Assay type: toxicity, organism-based, Sprague-Dawley
Set-up: regimen Single, gender Male, age 6 weeks
Conditions: in vivo, po, 100 mg/kg, route gavage, dose level Low; for APTT / Bas / Eos / Fbg / Hb / Ht / Lym / MCH / MCHC / MCV / Mono / Neu / PT / Plat / RBC / Ret / WBC: tissue Blood; for KIDNEY_L / KIDNEY_R / KIDNEY_TOTAL: tissue Kidney; for LIVER: tissue Liver; for A/G / ALP / ALT / AST / BUN / CRE / Ca / Cl / DBIL / GLC / IP / K / LDH / Na / PL / RALB / TBIL / TC / TG / TP / gamma-GTP: tissue Plasma

O=C(OC[C@H]1O[C@@H](OC(=O)c2cc(O)c(O)c(OC(=O)c3cc(O)c(O)c(O)c3)c2)[C@H](OC(=O)c2cc(O)c(O)c(OC(=O)c3cc(O)c(O)c(O)c3)c2)[C@@H](OC(=O)c2cc(O)c(O)c(OC(=O)c3cc(O)c(O)c(O)c3)c2)[C@@H]1OC(=O)c1cc(O)c(O)c(OC(=O)c2cc(O)c(O)c(O)c2)c1)c1cc(O)c(O)c(OC(=O)c2cc(O)c(O)c(O)c2)c1 [TANNIC ACID]
TERMINAL_BW (3 h): 188.9 g
APTT (3 h): 16.1 s
Bas (3 h): 0%
Eos (3 h): 1.2%
Fbg (3 h): 212.2 mg/dL
Hb (3 h): 13 g/dL
Ht (3 h): 38.5%
Lym (3 h): 82%
MCH (3 h): 22.2 pg
MCHC (3 h): 33.8%
MCV (3 h): 65.6 fL
Mono (3 h): 5.8%
Neu (3 h): 11.2%
PT (3 h): 11.5 s
Plat (3 h): 112.2 x10_4/uL
RBC (3 h): 587 x10_4/ul
Ret (3 h): 10.1%
WBC (3 h): 96.7 x10_2/uL
KIDNEY_L (3 h): 0.9 g
KIDNEY_R (3 h): 0.9 g
KIDNEY_TOTAL (3 h): 1.7 g
LIVER (3 h): 8.6 g
A/G (3 h): 2
ALP (3 h): 882 IU/L
ALT (3 h): 37.8 IU/L
AST (3 h): 70.2 IU/L
BUN (3 h): 15.8 mg/dL
CRE (3 h): 0.5 mg/dL
Ca (3 h): 10.9 mg/dL
Cl (3 h): 105 meq/L
DBIL (3 h): 0.018 mg/dL
GLC (3 h): 198 mg/dL
IP (3 h): 10.2 mg/dL
K (3 h): 4.9 meq/L
LDH (3 h): 75 IU/L
Na (3 h): 139.2 meq/L
PL (3 h): 128.8 mg/dL
RALB (3 h): 3.5 g/dL
TBIL (3 h): 0.5 mg/dL
TC (3 h): 68.6 mg/dL
TG (3 h): 47.6 mg/dL
TP (3 h): 5.3 g/dL
gamma-GTP (3 h): 2.2 IU/L
TERMINAL_BW (6 h): 185 g
APTT (6 h): 17.1 s
Bas (6 h): 0%
Eos (6 h): 1%
Fbg (6 h): 212.6 mg/dL
Hb (6 h): 12.7 g/dL
Ht (6 h): 37.9%
Lym (6 h): 78.4%
MCH (6 h): 22.6 pg
MCHC (6 h): 33.5%
MCV (6 h): 67.3 fL
Mono (6 h): 6.4%
Neu (6 h): 14.6%
PT (6 h): 12 s
Plat (6 h): 109.6 x10_4/uL
RBC (6 h): 564 x10_4/ul
Ret (6 h): 10.4%
WBC (6 h): 85.8 x10_2/uL
KIDNEY_L (6 h): 0.9 g
KIDNEY_R (6 h): 0.9 g
KIDNEY_TOTAL (6 h): 1.8 g
LIVER (6 h): 8.5 g
A/G (6 h): 2
ALP (6 h): 684.8 IU/L
ALT (6 h): 38.6 IU/L
AST (6 h): 70.4 IU/L
BUN (6 h): 12.6 mg/dL
CRE (6 h): 0.5 mg/dL
Ca (6 h): 10.8 mg/dL
Cl (6 h): 105 meq/L
DBIL (6 h): 0.032 mg/dL
GLC (6 h): 188.2 mg/dL
IP (6 h): 10.4 mg/dL
K (6 h): 4.5 meq/L
LDH (6 h): 102.8 IU/L
Na (6 h): 140.6 meq/L
PL (6 h): 140.2 mg/dL
RALB (6 h): 3.5 g/dL
TBIL (6 h): 0.5 mg/dL
TC (6 h): 86 mg/dL
TG (6 h): 41.4 mg/dL
TP (6 h): 5.3 g/dL
gamma-GTP (6 h): 1.2 IU/L
TERMINAL_BW (9 h): 180.9 g
APTT (9 h): 16.4 s
Bas (9 h): 0%
Eos (9 h): 1%
Fbg (9 h): 217.4 mg/dL
Hb (9 h): 13.2 g/dL
Ht (9 h): 39.3%
Lym (9 h): 80.4%
MCH (9 h): 22.3 pg
MCHC (9 h): 33.6%
MCV (9 h): 66.5 fL
Mono (9 h): 6.8%
Neu (9 h): 12%
PT (9 h): 12 s
Plat (9 h): 112.9 x10_4/uL
RBC (9 h): 591.6 x10_4/ul
Ret (9 h): 10.1%
WBC (9 h): 105.1 x10_2/uL
KIDNEY_L (9 h): 0.8 g
KIDNEY_R (9 h): 0.8 g
KIDNEY_TOTAL (9 h): 1.6 g
LIVER (9 h): 7.2 g
A/G (9 h): 2
ALP (9 h): 837.8 IU/L
ALT (9 h): 35.2 IU/L
AST (9 h): 64.2 IU/L
BUN (9 h): 12.6 mg/dL
CRE (9 h): 0.4 mg/dL
Ca (9 h): 10.3 mg/dL
Cl (9 h): 106.4 meq/L
DBIL (9 h): 0.072 mg/dL
GLC (9 h): 190.2 mg/dL
IP (9 h): 10.2 mg/dL
K (9 h): 4.9 meq/L
LDH (9 h): 101.4 IU/L
Na (9 h): 137.6 meq/L
PL (9 h): 135.2 mg/dL
RALB (9 h): 3.6 g/dL
TBIL (9 h): 0.5 mg/dL
TC (9 h): 78.8 mg/dL
TG (9 h): 24.6 mg/dL
TP (9 h): 5.4 g/dL
gamma-GTP (9 h): 1.6 IU/L
TERMINAL_BW (24 h): 201.1 g
APTT (24 h): 16.7 s
Bas (24 h): 0%
Eos (24 h): 1%
Fbg (24 h): 227.8 mg/dL
Hb (24 h): 12.8 g/dL
Ht (24 h): 38.4%
Lym (24 h): 78.8%
MCH (24 h): 21.9 pg
MCHC (24 h): 33.4%
MCV (24 h): 65.6 fL
Mono (24 h): 5.4%
Neu (24 h): 14.8%
PT (24 h): 11.7 s
Plat (24 h): 114.5 x10_4/uL
RBC (24 h): 585.2 x10_4/ul
Ret (24 h): 10.1%
WBC (24 h): 96.6 x10_2/uL
KIDNEY_L (24 h): 0.9 g
KIDNEY_R (24 h): 0.9 g
KIDNEY_TOTAL (24 h): 1.8 g
LIVER (24 h): 9.7 g
A/G (24 h): 2
ALP (24 h): 823.4 IU/L
ALT (24 h): 41.2 IU/L
AST (24 h): 63 IU/L
BUN (24 h): 17.8 mg/dL
CRE (24 h): 0.5 mg/dL
Ca (24 h): 10.8 mg/dL
Cl (24 h): 103.8 meq/L
DBIL (24 h): 0.008 mg/dL
GLC (24 h): 190.6 mg/dL
IP (24 h): 8.7 mg/dL
K (24 h): 4.5 meq/L
LDH (24 h): 98.2 IU/L
Na (24 h): 138 meq/L
PL (24 h): 147.2 mg/dL
RALB (24 h): 3.6 g/dL
TBIL (24 h): 0.3 mg/dL
TC (24 h): 81.4 mg/dL
TG (24 h): 101.6 mg/dL
TP (24 h): 5.5 g/dL
gamma-GTP (24 h): 1 IU/L
